According to US4985445A, “Cancer cell metastasis inhibitors and novel compounds” (Meiji Seika Kaisha, Ltd., priority 1988, dated 1991):

How the values were obtained:
[1] = system: B16 subline of high pulmonary metastatic potential; experiment: Inhibition of pulmonary metastasis of B16 subline pretreated with compound and injected i.v. into BDF1 mice; type: in vivo, murine; mouse BDF1; conditions: for Pulmonary Metastasis, Mouse 1 / Pulmonary Metastasis, Mouse 2 / Pulmonary Metastasis, Mouse 3 / Pulmonary Metastasis (Mean ± Standard Deviation): 14 days; for Pulmonary Metastasis (Mean ± Standard Deviation): None 32 ± 3.0; for Pulmonary Metastasis, %: None = 100
Procedure: Based on the method described priviously (Method in Cancer Research, 15, 399-439, 1978), a subline of high metastatic potential (high pulmonary colonization) was selected from murine melanoma B16 by repeating the i.v. transplantation of the tumor cells in BDF1 mice and the isolation of pulmonary metastatic clones.
Evaluation of the metastasis inhibiting activity was performed based on the method described previously (Proc. Natl Acad. Sci. USA, 83, 1752-1756, 1986, Cancer Research, 46, 858-862, 1986).
Firstly, the B16 subline of high metastatic potential was inoculated into Dulbecco's ME medium (DME medium) supplemented with 10% bovine fetal serum and the compound represented by general formula (I) described above was added thereto.
The B16 subline of high pulmonary metastatic potential was inoculated into DME medium supplemented with 10% bovine fetal serum and 30, 100 or 300 μg/ml of N (3-phenylpropyl)-1-deoxynojirimycin was added thereto followed by incubation at 37° C. for 3 days in the presence of 5% CO2.
Inhibition of metastasis was examined in a manner similar to Test Example 2 except that N-(3-phenyl-2-propenyl)-1-deoxy-nojirimycin and N-(3-p-chlorophenyl-3-methyl-2-propenyl)-1-deoxynojirimycin were used instead of N-(3-phenylpropyl)-1-deoxynojirimycin in Test Example 2. In this test example, however, 2.5×10^5 cells each of the B16 subline were transplanted to 3 mice for each group.
The B16 subline of high pulmonary metastatic potential was inoculated into DME medium supplemented with 10% bovine fetal serum and 30 μg/ml of N-(4-phenoxy-trans-2-butenyl)-1-deoxynojirimycin was added thereto followed by incubation at 37° C. for 3 days in the presence of 5% CO2. […] The number of colonies of the B16 subline formed on the surface of and in the lung was counted.
Inhibition of metastasis was examined in a manner similar to Test Example 5 except that N-(2-phenoxyethyl)-1-deoxynojirimycin was used instead of N-(4-phenoxy-trans-2-butenyl)-1-deoxynojirimycin in Test Example 5.
The B16 sibline of high pulmonary metastatic potential was inoculated into DME medium supplemented with 10% bovine fetal serum and 10 μg/ml of D-glucaro-δ-lactam calcium salt was added thereto followed by incubation at 37° C. for 3 days in the presence of 5% CO2. […] The number of the colonies formed on the surface of and in the lung was counted.
Inhibition of metastasis was examined in a manner similar to Test Example 8 except that D-glucaro-δ-lactam methyl ester and D-glucaro-δ-lactam ethyl ester were used instead of D-glucaro-δ-lactam calcium salt in Test Example 8.
The B16 subline of high pulmonary metastatic potential was inoculated into DME medium supplemented with 10% bovine fetal serum and 10 μg/ml of 2,6-di-O-(acetylsalicyloyl)-D-gluco-δ-lactam was added thereto followed by incubation at 37° C. for 3 days in the presence of 5% CO2.
The B16 subline of high pulmonary metastatic potential was inoculated into DME medium supplemented with 10% bovine fetal serum and 30 μg/ml of 6-O-triphenylmethyl-D-gluco-δ-lactam was added thereto followed by incubation at 37° C. for 3 days in the presence of 5% CO2.
The B16 subline of high pulmonary metastatic potential was inoculated into DME medium supplemented with 10% bovine fetal serum and 30 μg/ml of 1-deoxynojirimycin was added thereto followed by incubation at 37° C. for 3 days in the presence of 5% CO2.

[2] = system: murine tumor cell line L 929; experiment: Cytotoxic activity against L 929 (growth observed with inverted microscope, 4 days); type: cell-based; conditions: for Growth: 4 days;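 on growth: + means growth and ± means marked inhibition and - means cell death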
Procedure: The B16 subline of high pulmonary metastatic potential and murine tumor cell line L 929 were cultured in DME medium supplemented with 10% bovine fetal serum at 37° C. in the presence of 5% CO2.
The B16 subline of high pulmanary metastatic potential and murine tumor cell line L 929 were cultured in DME medium supplemented with 10% bovine fetal serum at 37° C. in the presence of 5% CO2.

**Q.** `OC[C@@H]1[C@@H](O)[C@H](O)[C@@H](O)CN1CCCc1ccccc1` [N-(3-Phenylpropyl)-1-deoxynojirimycin, N-(3-phenylpropyl)-1-deoxynojirimycin] was tested. Which “Inhibition of metastasis to the lungs (in words)” value ([1]; B16 subline, BDF1 mice) did it give?
**A.** shows decrease in the number of colonies

**Q.** And the “Pulmonary Metastasis, Mouse 1” value ([1]; Table 3, 30 μg/ml)?
**A.** 9 no.

**Q.** And the “Pulmonary Metastasis, Mouse 2” value ([1]; Table 3, 30 μg/ml)?
**A.** 22 no.

**Q.** And the “Pulmonary Metastasis, Mouse 3” value ([1]; Table 3, 30 μg/ml)?
**A.** 37 no.

**Q.** And the “Pulmonary Metastasis (Mean ± Standard Deviation)” value ([1]; Table 3, 30 μg/ml)?
**A.** 22.7 ± 14.0 no.

**Q.** And the “Pulmonary Metastasis, %” value ([1]; Table 3, 30 μg/ml)?
**A.** 68.8%

**Q.** And the “Pulmonary Metastasis, Mouse 1” value ([1]; Table 3, 100 μg/ml)?
**A.** 4 no.

**Q.** What about the “Pulmonary Metastasis, Mouse 2” value ([1]; Table 3, 100 μg/ml) of the same molecule?
**A.** 4 no.

**Q.** What about the “Pulmonary Metastasis, Mouse 3” value ([1]; Table 3, 100 μg/ml) of the same molecule?
**A.** 6 no.

**Q.** What about the “Pulmonary Metastasis (Mean ± Standard Deviation)” value ([1]; Table 3, 100 μg/ml) of the same molecule?
**A.** 4.7 ± 1.2 no.

**Q.** What about the “Pulmonary Metastasis, %” value ([1]; Table 3, 100 μg/ml) of the same molecule?
**A.** 14.7%

**Q.** And the “Pulmonary Metastasis, Mouse 1” value ([1]; Table 3, 300 μg/ml)?
**A.** 0 no.

**Q.** What about the “Pulmonary Metastasis, Mouse 2” value ([1]; Table 3, 300 μg/ml) of the same molecule?
**A.** 0 no.

**Q.** And the “Pulmonary Metastasis, Mouse 3” value ([1]; Table 3, 300 μg/ml)?
**A.** 3 no.

**Q.** And the “Pulmonary Metastasis (Mean ± Standard Deviation)” value ([1]; Table 3, 300 μg/ml)?
**A.** 1 ± 1.7 no.

**Q.** What about the “Pulmonary Metastasis, %” value ([1]; Table 3, 300 μg/ml) of the same molecule?
**A.** 3.1%

**Q.** What about the “Cytotoxicity (in words)” value ([2]; L 929, even at a concentration as high as 100 μg/ml) of the same molecule?
**A.** did not show marked cytotoxicity

**Q.** What about the Growth ([2]; Table 2, L 929, 0.5 μg/ml) of the same molecule?
**A.** +

**Q.** And the Growth ([2]; Table 2, L 929, 5 μg/ml)?
**A.** +

**Q.** What about the Growth ([2]; Table 2, L 929, 50 μg/ml) of the same molecule?
**A.** +

**Q.** And the Growth ([2]; Table 2, L 929, 100 μg/ml)?
**A.** +
